Patent publication US20210045385A1, “PYRIDAZINONE-SUBSTITUTED KETOXIMES AS HERBICIDES” (FMC Corporation, priority 2018, published 2021)

Legend:
Assay type in all cases: in vivo
[1] = test system: Italian ryegrass (Lolium multiflorum); assay: Test A preemergence, visual plant response rating; conditions: for Ryegrass, Italian plant response rating: 125 g ai/ha, preemergence, 0 to 100 scale, 0 no effect, 100 complete control; for Ryegrass, Italian plant response rating (0 to 100 scale): 500 g ai/ha Preemergence, approx. 10 days
Outline: (§1)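 Greenhouse evaluation, approx. 10 days post-spray. Soil: loam + sand. Postemergence stage: 1–2 leaves, height 2–10 cm. Vehicle: non-phytotoxic solvent blend with surfactant. Score: visual injury on a 0 (no effect) to 100 (complete control) scale.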

[2] = test system: barnyardgrass (Echinochloa crus-galli); assay: Test A preemergence, visual plant response rating; conditions: for Barnyardgrass plant response rating: 125 g ai/ha, preemergence, 0 to 100 scale, 0 no effect, 100 complete control; for Barnyardgrass plant response rating (0 to 100 scale): 500 g ai/ha Preemergence, approx. 10 days
Outline: as §1

[3] = test system: foxtail, giant (giant foxtail, Setaria faberii); assay: Test A preemergence, visual plant response rating; conditions: for Foxtail, Giant plant response rating: 125 g ai/ha, preemergence, 0 to 100 scale, 0 no effect, 100 complete control; for Foxtail, Giant plant response rating (0 to 100 scale): 500 g ai/ha Preemergence, approx. 10 days
Outline: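 Ratings use a 0–100 visual scale (100 = complete control) against untreated controls, scored about 10 days after greenhouse treatment. Test chemicals were formulated in surfactant-containing non-phytotoxic solvent and applied either as soil spray after planting (preemergence) or onto one- to two-leaf, 2–10 cm plants (postemergence).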

kochia (Kochia scoparia) [4] = assay: Test A preemergence, visual plant response rating; conditions: for Kochia plant response rating: 125 g ai/ha, preemergence, 0 to 100 scale, 0 no effect, 100 complete control; for Kochia plant response rating (0 to 100 scale): 500 g ai/ha Preemergence, approx. 10 days
Outline: as §1

[5] = test system: pigweed (Amaranthus retroflexus); assay: Test A preemergence, visual plant response rating; conditions: for Pigweed plant response rating: 125 g ai/ha, preemergence, 0 to 100 scale, 0 no effect, 100 complete control; for Pigweed plant response rating (0 to 100 scale): 500 g ai/ha Preemergence, approx. 10 days
Outline: as §1

[6] = test system: ragweed (common ragweed, Ambrosia elatior); assay: Test A preemergence, visual plant response rating; conditions: for Ragweed plant response rating: 125 g ai/ha, preemergence, 0 to 100 scale, 0 no effect, 100 complete control; for Ragweed plant response rating (0 to 100 scale): 500 g ai/ha Preemergence, approx. 10 days
Outline: as §1

[7] = test system: Italian ryegrass (Lolium multiflorum); assay: Test A postemergence, visual plant response rating; conditions: for Ryegrass, Italian plant response rating (0 to 100 scale): 500 g ai/ha, postemergence, 0 is no effect, 100 is complete control; for Ryegrass, Italian plant response rating: Postemergence, 125 g ai/ha, 0 to 100 scale (0 no effect, 100 complete control)
Outline: as §1

[8] = test system: barnyardgrass (Echinochloa crus-galli); assay: Test A postemergence, visual plant response rating; conditions: for Barnyardgrass plant response rating (0 to 100 scale): 500 g ai/ha, postemergence, 0 is no effect, 100 is complete control; for Barnyardgrass plant response rating: Postemergence, 125 g ai/ha, 0 to 100 scale (0 no effect, 100 complete control)
Outline: as §1

[9] = test system: blackgrass (Alopecurus myosuroides); assay: Test A postemergence, visual plant response rating; conditions: for Blackgrass plant response rating (0 to 100 scale): 500 g ai/ha, postemergence, 0 is no effect, 100 is complete control; for Blackgrass plant response rating: Postemergence, 125 g ai/ha, 0 to 100 scale (0 no effect, 100 complete control)
Outline: as §1

corn (Zea mays) = assay: Test A postemergence, visual plant response rating; conditions: for Corn plant response rating (0 to 100 scale): 500 g ai/ha, postemergence, 0 is no effect, 100 is complete control; for Corn plant response rating: Postemergence, 125 g ai/ha, 0 to 100 scale (0 no effect, 100 complete control)
Outline: as §1

[10] = test system: foxtail, giant (giant foxtail, Setaria faberii); assay: Test A postemergence, visual plant response rating; conditions: for Foxtail, Giant plant response rating (0 to 100 scale): 500 g ai/ha, postemergence, 0 is no effect, 100 is complete control; for Foxtail, Giant plant response rating: Postemergence, 125 g ai/ha, 0 to 100 scale (0 no effect, 100 complete control)
Outline: as §1

[11] = test system: galium (catchweed bedstraw, Galium aparine); assay: Test A postemergence, visual plant response rating; conditions: for Galium plant response rating (0 to 100 scale): 500 g ai/ha, postemergence, 0 is no effect, 100 is complete control; for Galium plant response rating: Postemergence, 125 g ai/ha, 0 to 100 scale (0 no effect, 100 complete control)
Outline: as §1

kochia (Kochia scoparia) [12] = assay: Test A postemergence, visual plant response rating; conditions: for Kochia plant response rating (0 to 100 scale): 500 g ai/ha, postemergence, 0 is no effect, 100 is complete control; for Kochia plant response rating: Postemergence, 125 g ai/ha, 0 to 100 scale (0 no effect, 100 complete control)
Outline: as §1

[13] = test system: pigweed (Amaranthus retroflexus); assay: Test A postemergence, visual plant response rating; conditions: for Pigweed plant response rating (0 to 100 scale): 500 g ai/ha, postemergence, 0 is no effect, 100 is complete control; for Pigweed plant response rating: Postemergence, 125 g ai/ha, 0 to 100 scale (0 no effect, 100 complete control)
Outline: as §1

[14] = test system: ragweed (common ragweed, Ambrosia elatior); assay: Test A postemergence, visual plant response rating; conditions: for Ragweed plant response rating (0 to 100 scale): 500 g ai/ha, postemergence, 0 is no effect, 100 is complete control; for Ragweed plant response rating: Postemergence, 125 g ai/ha, 0 to 100 scale (0 no effect, 100 complete control)
Outline: as §1

[15] = test system: wheat (Triticum aestivum); assay: Test A postemergence, visual plant response rating; conditions: for Wheat plant response rating (0 to 100 scale): 500 g ai/ha, postemergence, 0 is no effect, 100 is complete control; for Wheat plant response rating: Postemergence, 125 g ai/ha, 0 to 100 scale (0 no effect, 100 complete control)
Outline: as §1

[16] = test system: barnyardgrass (Echinochloa crus-galli); assay: Test B flooded paddy test, visual plant response rating; conditions: 250 g ai/ha, Flood, applied to paddy water, 2-leaf stage, evaluated after 13 to 15 days
Outline: (§2)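 Test pots are flooded 3 cm above the soil at treatment, and the test substance is introduced into this standing water. After keeping the flood level and growing plants, treated at the 2-leaf stage, for 13 to 15 days under glass, injury is assessed visually versus controls.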

[17] = test system: ducksalad (Heteranhera limosa); assay: as above; conditions: 250 g ai/ha, Flood, applied to paddy water, 2-leaf stage, evaluated after 13 to 15 days
Outline: as §2

rice (Oryza sativa) = assay: as above; conditions: 250 g ai/ha, Flood, applied to paddy water, 2-leaf stage, evaluated after 13 to 15 days
Outline: as §2

[18] = test system: sedge, umbrella (small-flower umbrella sedge, Cyperus difformis); assay: as above; conditions: 250 g ai/ha, Flood, applied to paddy water, 2-leaf stage, evaluated after 13 to 15 days
Outline: as §2

## CCc1cccc(/C(=N\OC)c2c(O)c(C)nn(C)c2=O)c1 [Compound 68]
[1]
  Ryegrass, Italian plant response rating: 30
  Ryegrass, Italian plant response rating (0 to 100 scale): 60
[2]
  Barnyardgrass plant response rating: 0
  Barnyardgrass plant response rating (0 to 100 scale): 0
[3]
  Foxtail, Giant plant response rating: 0
  Foxtail, Giant plant response rating (0 to 100 scale): 20
Kochia (Kochia scoparia) [4]
  Kochia plant response rating: 10
  Kochia plant response rating (0 to 100 scale): 40
[5]
  Pigweed plant response rating: 50
  Pigweed plant response rating (0 to 100 scale): 80
[6]
  Ragweed plant response rating: 20
  Ragweed plant response rating (0 to 100 scale): 50
[7]
  Ryegrass, Italian plant response rating (0 to 100 scale): 30
  Ryegrass, Italian plant response rating: 20
[8]
  Barnyardgrass plant response rating (0 to 100 scale): 0
  Barnyardgrass plant response rating: 0
[9]
  Blackgrass plant response rating (0 to 100 scale): 30
  Blackgrass plant response rating: 30
Corn (Zea mays)
  Corn plant response rating (0 to 100 scale): 0
  Corn plant response rating: 0
[10]
  Foxtail, Giant plant response rating (0 to 100 scale): 10
  Foxtail, Giant plant response rating: 0
[11]
  Galium plant response rating (0 to 100 scale): 70
  Galium plant response rating: 60
Kochia (Kochia scoparia) [12]
  Kochia plant response rating (0 to 100 scale): 80
  Kochia plant response rating: 70
[13]
  Pigweed plant response rating (0 to 100 scale): 80
  Pigweed plant response rating: 30
[14]
  Ragweed plant response rating (0 to 100 scale): 90
  Ragweed plant response rating: 70
[15]
  Wheat plant response rating (0 to 100 scale): 0
  Wheat plant response rating: 0
[16]
  Plant response rating, Barnyardgrass (0 to 100 scale, 0 is no effect, 100 is complete control): 0
[17]
  Plant response rating, Ducksalad (0 to 100 scale, 0 is no effect, 100 is complete control): 0
Rice (Oryza sativa)
  Plant response rating, Rice (0 to 100 scale, 0 is no effect, 100 is complete control): 0
[18]
  Plant response rating, Sedge, Umbrella (0 to 100 scale, 0 is no effect, 100 is complete control): 0

## CON=C(c1c(O)c(C)nn(C)c1=O)c1ccc(F)c2ccccc12 [Compound 51]
[1]
  Ryegrass, Italian plant response rating: 70
  Ryegrass, Italian plant response rating (0 to 100 scale): 100
[2]
  Barnyardgrass plant response rating: 60
  Barnyardgrass plant response rating (0 to 100 scale): 80
[3]
  Foxtail, Giant plant response rating: 70
  Foxtail, Giant plant response rating (0 to 100 scale): 100
Kochia (Kochia scoparia) [4]
  Kochia plant response rating: 10
  Kochia plant response rating (0 to 100 scale): 80
[5]
  Pigweed plant response rating: 90
  Pigweed plant response rating (0 to 100 scale): 90
[6]
  Ragweed plant response rating: 90
  Ragweed plant response rating (0 to 100 scale): 100
[7]
  Ryegrass, Italian plant response rating (0 to 100 scale): 100
  Ryegrass, Italian plant response rating: 90
[8]
  Barnyardgrass plant response rating (0 to 100 scale): 80
  Barnyardgrass plant response rating: 30
[9]
  Blackgrass plant response rating (0 to 100 scale): 100
  Blackgrass plant response rating: 90
Corn (Zea mays)
  Corn plant response rating (0 to 100 scale): 20
  Corn plant response rating: 10
[10]
  Foxtail, Giant plant response rating (0 to 100 scale): 90
  Foxtail, Giant plant response rating: 50
[11]
  Galium plant response rating (0 to 100 scale): 100
  Galium plant response rating: 100
Kochia (Kochia scoparia) [12]
  Kochia plant response rating (0 to 100 scale): 90
  Kochia plant response rating: 80
[13]
  Pigweed plant response rating (0 to 100 scale): 90
  Pigweed plant response rating: 90
[14]
  Ragweed plant response rating (0 to 100 scale): 100
  Ragweed plant response rating: 80
[15]
  Wheat plant response rating (0 to 100 scale): 90
  Wheat plant response rating: 70
[16]
  Plant response rating, Barnyardgrass (0 to 100 scale, 0 is no effect, 100 is complete control): 15
[17]
  Plant response rating, Ducksalad (0 to 100 scale, 0 is no effect, 100 is complete control): 75
Rice (Oryza sativa)
  Plant response rating, Rice (0 to 100 scale, 0 is no effect, 100 is complete control): 15
[18]
  Plant response rating, Sedge, Umbrella (0 to 100 scale, 0 is no effect, 100 is complete control): 65
